Here are results for 16 compounds from patent publication US9586942B2, “Aminotetraline and aminoindane derivatives, pharmaceutical compositions containing them, and their use in therapy” (AbbVie Deutschland GmbH & Co. KG, priority 2013, dated 2017).

One data set deals with human GlyT1c transporter (Homo sapiens (Human), UniProt P48067). Put plainly: Radioligand binding assay using recombinant CHO cell membranes expressing human GlyT1. Conditions: examples marked * tested as fumarate salts, read-out: radioligand binding Kiapp. As to the method: 2. Radioligand binding assays using recombinant CHO cell membranes expressing human GlyT1:
Radioligand binding to human GlyT1c transporter-expressing membranes was determined as described in Mezler et al., Molecular Pharmacology 74:1705-1715, 2008.

Data set [1] is described as follows: Metabolic stability in human liver microsomes. The class given is in vitro ADME. Conditions: human liver microsomes 0.25 mg protein/ml, 0.5 μM test substance, NADPH, 37° C., pH 7.4; scaled microsomal clearance; examples marked * tested as fumarate salts. How it is done: Metabolic stability was determined as follows:
0.5 μM test substance was preincubated together with human liver microsomes (0.25 mg of microsomal protein/ml) in 0.05 M potassium phosphate buffer of pH 7.4 in microtiter plates at 37° C. for 5 min. The reaction was started by adding NADPH (1.0 mM). After 0, 5, 10, 15, 20 and 30 min the reaction was stopped and cooled with twice the amount of quench solution consisting of acetonitrile/methanol 1:1, and containing 0.2 μM carbutamide. The samples were frozen until analyzed. The remaining concentration of undegraded test substance was determined by LC MSMS. The half-life (T1/2) was determined from the gradient of the signal of test substance/unit time plot, allowing to calculate the half-life of the test substance, assuming first order kinetics, from the decrease in the concentration of the compound with time. The microsomal clearance (mClint) was calculated as follows: mClint=((ln(2)/t 1/2)/Microsomal Protein Concentration (mg/ml))*1000, leading to the unit of uLmin/mg. The scaled clearance (mClin_scaled) was calculated as mCLint_scaled=m CLint*(Microsomal Yield (mg/kg BW))/1000000*60, leading to the units L/hr/kg. The Microsomal Yield is defined by the specifics of the used microsomes. Calculations were modified from references: Di, The Society for Biomolecular Screening, 2003, 453-462; Obach, DMD, 1999 vol 27. N 11, 1350-1359.
For orientation: Liver microsomes are a subcellular fraction often used to study metabolism.

human GlyT1c transporter, sequence (P48067 whole entry): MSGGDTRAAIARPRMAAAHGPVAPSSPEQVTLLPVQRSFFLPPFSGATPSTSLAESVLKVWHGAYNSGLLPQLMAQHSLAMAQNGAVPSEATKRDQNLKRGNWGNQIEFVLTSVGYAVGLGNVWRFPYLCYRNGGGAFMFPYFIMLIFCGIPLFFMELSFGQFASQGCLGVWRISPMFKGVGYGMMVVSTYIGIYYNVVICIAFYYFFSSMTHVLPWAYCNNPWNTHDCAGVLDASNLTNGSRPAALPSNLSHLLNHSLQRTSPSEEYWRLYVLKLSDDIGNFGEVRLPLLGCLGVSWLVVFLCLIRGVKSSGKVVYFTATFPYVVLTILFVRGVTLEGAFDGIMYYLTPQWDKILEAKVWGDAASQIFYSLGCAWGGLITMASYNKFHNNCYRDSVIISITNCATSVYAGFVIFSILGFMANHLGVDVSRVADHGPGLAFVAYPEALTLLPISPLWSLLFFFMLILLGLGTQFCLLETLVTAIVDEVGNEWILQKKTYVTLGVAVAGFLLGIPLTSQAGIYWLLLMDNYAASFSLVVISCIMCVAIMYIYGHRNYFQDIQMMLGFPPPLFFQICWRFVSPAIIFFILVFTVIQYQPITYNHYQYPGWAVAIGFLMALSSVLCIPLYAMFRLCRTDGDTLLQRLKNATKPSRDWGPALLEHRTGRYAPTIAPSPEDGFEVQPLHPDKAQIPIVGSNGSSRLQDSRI

As to `Cn1cnc(S(=O)(=O)NC2(C)CN(c3ccc4c(c3)[C@@H](Cc3ccccc3)[C@@H](N3CCC3)CC4)C2)c1` [Example 7, N-(1-((7S,8R)-7-(azetidin-1-yl)-8-benzyl-5,6,7,8-tetrahydronaphthalen-2-yl)-3-methylazetidin-3-yl)-1-methyl-1H-imidazole-4-sulfonamide], the Ki on human GlyT1c transporter was no more than 100 nM. The “human mCl” value in data set [1] is given as “≦5 L/h/Kg”.
Taken in the same sequence, the figures for `O=S(=O)(NC1CN(c2ccc3c(c2)[C@@H](Cc2ccccc2)[C@@H](N2CCC2)CC3)C1)c1ccc2c(c1)OC(F)(F)O2` [Example 6, N-(1-((7S,8R)-7-(azetidin-1-yl)-8-benzyl-5,6,7,8-tetrahydronaphthalen-2-yl)azetidin-3-yl)-2,2-difluorobenzo[d][1,3]dioxole-5-sulfonamide] were no more than 10000 nM and “≦500 L/h/Kg”.
As for `CCCS(=O)(=O)NC1CN(c2ccc3c(c2)[C@@H](Cc2ccccc2)[C@@H](N2CCC2)CC3)C1` [Example 5, N-(1-((7S,8R)-7-(azetidin-1-yl)-8-benzyl-5,6,7,8-tetrahydronaphthalen-2-yl)azetidin-3-yl)propane-1-sulfonamide], on human GlyT1c transporter, the Ki is no more than 10 nM. Besides, in data set [1], the “human mCl” value is on record as “≦5 L/h/Kg”.
For the compound `Cn1cnc(S(=O)(=O)N[C@@H]2CCN(c3ccc4c(c3)[C@@H](Cc3ccccc3)[C@@H](N3CCC3)CC4)C2)c1` [Example 9, N-((R)-1-((7S,8R)-7-(azetidin-1-yl)-8-benzyl-5,6,7,8-tetrahydronaphthalen-2-yl)pyrrolidin-3-yl)-1-methyl-1H-imidazole-4-sulfonamide], the Ki at human GlyT1c transporter is no more than 100 nM. For the same compound, the “human mCl” value in data set [1] was “≦5 L/h/Kg”.
On to `Cn1cnc(S(=O)(=O)N[C@H]2C[C@H](c3ccc4c(c3)[C@@H](Cc3ccccc3)[C@@H](N3CCC3)CC4)C2)c1` [Example 12, N-((1R,3r)-3-((7S,8R)-7-(azetidin-1-yl)-8-benzyl-5,6,7,8-tetrahydronaphthalen-2-yl)cyclobutyl)-1-methyl-1H-imidazole-4-sulfonamide], for which, at human GlyT1c transporter, the Ki was no more than 10 nM. Further, the “human mCl” value in data set [1] was “≦5 L/h/Kg”.
For `Cn1cc(S(=O)(=O)NC2CN(c3ccc4c(c3)[C@@H](Cc3ccccc3)[C@@H](N3CC5CC5C3)CC4)C2)nn1` (stereo partly drawn) [Example 16, N-(1-((7S,8R)-8-benzyl-7-(3-azabicyclo[3.1.0]hexan-3-yl)-5,6,7,8-tetrahydronaphthalen-2-yl)azetidin-3-yl)-1-methyl-1H-1,2,3-triazole-4-sulfonamide], the Ki at human GlyT1c transporter is no more than 10 nM. In addition, the “human mCl” value in data set [1] is “≦5 L/h/Kg”.
In the case of `Cn1cnc(S(=O)(=O)NC2CN(c3ccc4c(c3)[C@@H](Cc3ccccc3)[C@@H](N3CCC3)CC4)C2)c1` [Example 1, N-(1-((7S,8R)-7-(azetidin-1-yl)-8-benzyl-5,6,7,8-tetrahydronaphthalen-2-yl)azetidin-3-yl)-1-methyl-1H-imidazole-4-sulfonamide], the Ki at human GlyT1c transporter was no more than 10 nM. Besides, the “human mCl” value in data set [1] was “≦5 L/h/Kg”.
`CS(=O)(=O)NC1CN(c2ccc3c(c2)[C@@H](Cc2ccccc2)[C@@H](N2CCC2)CC3)C1` [Example 3, N-(1-((7S,8R)-7-(azetidin-1-yl)-8-benzyl-5,6,7,8-tetrahydronaphthalen-2-yl)azetidin-3-yl)methanesulfonamide]: at human GlyT1c transporter, the Ki was no more than 1000 nM. In data set [1], the “human mCl” value is “≦5 L/h/Kg”.
`Cn1cnc(S(=O)(=O)NC2CN(c3ccc4c(c3)[C@@H](Cc3ccccc3)[C@@H](N3CC5CC5C3)CC4)C2)c1` (stereo partly drawn) [Example 15, N-(1-((7S,8R)-8-benzyl-7-(3-azabicyclo[3.1.0]hexan-3-yl)-5,6,7,8-tetrahydronaphthalen-2-yl)azetidin-3-yl)-1-methyl-1H-imidazole-4-sulfonamide]: the Ki at human GlyT1c transporter was no more than 100 nM. In data set [1], the “human mCl” value was “≦5 L/h/Kg”.
In the case of `CCCS(=O)(=O)NC1CN(c2ccc3c(c2)[C@@H](Cc2ccccc2)[C@@H](N2CC4CC4C2)CC3)C1` (stereo partly drawn) [Example 17, N-(1-((7S,8R)-8-benzyl-7-(3-azabicyclo[3.1.0]hexan-3-yl)-5,6,7,8-tetrahydronaphthalen-2-yl)azetidin-3-yl)propane-1-sulfonamide], the Ki at human GlyT1c transporter is no more than 10 nM. In addition, in data set [1], the “human mCl” value was “≦5 L/h/Kg”.
Regarding `CCS(=O)(=O)NC1CN(c2ccc3c(c2)[C@@H](Cc2ccccc2)[C@@H](N2CCC2)CC3)C1` [Example 4, N-(1-((7S,8R)-7-(azetidin-1-yl)-8-benzyl-5,6,7,8-tetrahydronaphthalen-2-yl)azetidin-3-yl)ethanesulfonamide], the Ki on human GlyT1c transporter is no more than 100 nM. In addition, the “human mCl” value in data set [1] is listed as “≦5 L/h/Kg”.
Regarding `Cn1cnc(S(=O)(=O)N[C@H]2C[C@@H](c3ccc4c(c3)[C@@H](Cc3ccccc3)[C@@H](N3CCC3)CC4)C2)c1` [Example 13, N-((1 S,3s)-3-((7S,8R)-7-(azetidin-1-yl)-8-benzyl-5,6,7,8-tetrahydronaphthalen-2-yl)cyclobutyl)-1-methyl-1H-imidazole-4-sulfonamide], at human GlyT1c transporter, the Ki was no more than 100 nM. Further, the “human mCl” value in data set [1] is “≦5 L/h/Kg”.
For `Cn1cnc(S(=O)(=O)NC2CCN(c3ccc4c(c3)[C@@H](Cc3ccccc3)[C@@H](N3CCC3)CC4)CC2)c1` [Example 11, N-(1-((7S,8R)-7-(azetidin-1-yl)-8-benzyl-5,6,7,8-tetrahydronaphthalen-2-yl)piperidin-4-yl)-1-methyl-1H-imidazole-4-sulfonamide], on human GlyT1c transporter, the Ki was no more than 100 nM. The “human mCl” value in data set [1] is on record as “≦5 L/h/Kg”.
For `CCS(=O)(=O)NC1(C)CN(c2ccc3c(c2)[C@@H](Cc2ccccc2)[C@@H](N2CCC2)CC3)C1` [Example 8, N-(1-((7S,8R)-7-(azetidin-1-yl)-8-benzyl-5,6,7,8-tetrahydronaphthalen-2-yl)-3-methylazetidin-3-yl)ethanesulfonamide], at human GlyT1c transporter, the Ki was no more than 10000 nM. Also, the “human mCl” value in data set [1] was “≦5 L/h/Kg”.
Consider `Cn1cnc(S(=O)(=O)N[C@H]2CCN(c3ccc4c(c3)[C@@H](Cc3ccccc3)[C@@H](N3CCC3)CC4)C2)c1` [Example 10, N-((S)-1-((7S,8R)-7-(azetidin-1-yl)-8-benzyl-5,6,7,8-tetrahydronaphthalen-2-yl)pyrrolidin-3-yl)-1-methyl-1H-imidazole-4-sulfonamide], for which, at human GlyT1c transporter, the Ki was no more than 1000 nM. Besides, the “human mCl” value in data set [1] was “≦5 L/h/Kg”.
On to `CCCS(=O)(=O)N[C@H]1CCN(c2ccc3c(c2)[C@@H](Cc2ccccc2)[C@@H](N2CCC2)CC3)C1=O` [Example 14, N-((S)-1-((7S,8R)-7-(azetidin-1-yl)-8-benzyl-5,6,7,8-tetrahydronaphthalen-2-yl)-2-oxopyrrolidin-3-yl)propane-1-sulfonamide], for which, on human GlyT1c transporter, the Ki was no more than 100 nM. Further, in data set [1], the “human mCl” value was “≦5 L/h/Kg”.
